Measured values: patent publication US20180140602A1, “COMBINATION OF CHIMERIC ANTIGEN RECEPTOR THERAPY AND AMINO PYRIMIDINE DERIVATIVES” (Novartis AG, priority 2015, published 2018)
pIC50: −log10 of the molar value.

What follows are compounds tested against T1, BTK (Homo sapiens, UniProt Q06187) (assay: Inhibition of BTK activity in blood (anti-IgM/IL-4 B cell activation, CD69)). Conditions: human whole blood, anti-IgM/IL-4, CD69 on CD19+ cells, 20 hours.
T1 construct: Whole blood was collected with written consent from healthy volunteers by venipuncture into sodium heparin vials; endogenous in cells; host or cells: B cells in heparinised whole blood of healthy human volunteers
Format: cell-based
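Note: heparinized blood from healthy donors, read by flow cytometry, with inhibition derived from the percentage of CD69-positive cells within the CD19-positive lymphocyte gate.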

T1 sequence (Q06187 whole entry): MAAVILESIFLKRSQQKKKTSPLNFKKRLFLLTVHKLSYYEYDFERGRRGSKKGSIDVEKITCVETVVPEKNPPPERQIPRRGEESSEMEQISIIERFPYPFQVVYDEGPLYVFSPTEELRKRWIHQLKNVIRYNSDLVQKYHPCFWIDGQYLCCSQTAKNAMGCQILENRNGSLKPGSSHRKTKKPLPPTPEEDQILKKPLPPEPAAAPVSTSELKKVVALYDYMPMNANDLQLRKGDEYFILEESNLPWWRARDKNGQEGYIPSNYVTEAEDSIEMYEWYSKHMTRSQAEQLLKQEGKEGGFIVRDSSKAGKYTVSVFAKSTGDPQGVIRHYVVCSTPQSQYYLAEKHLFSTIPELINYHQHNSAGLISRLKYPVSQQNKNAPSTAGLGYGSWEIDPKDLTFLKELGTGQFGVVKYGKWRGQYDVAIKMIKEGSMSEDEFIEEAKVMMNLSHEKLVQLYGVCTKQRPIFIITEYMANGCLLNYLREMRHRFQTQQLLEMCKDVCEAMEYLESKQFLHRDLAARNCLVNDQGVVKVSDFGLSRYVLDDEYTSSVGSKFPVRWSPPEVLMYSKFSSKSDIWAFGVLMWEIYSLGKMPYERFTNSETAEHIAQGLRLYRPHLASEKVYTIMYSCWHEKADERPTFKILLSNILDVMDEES

pIC50 | Structure (SMILES)
5.95 | C/C=C/C(=O)N1CC(Oc2c(N)ncnc2-c2cc(F)cc(NC(=O)c3ccc(C4CC4)cc3F)c2C)C1 [Example 2, (E)-N-(3-(6-Amino-5-((1-(but-2-enoyl)azetidin-3-yl)oxy)pyrimidin-4-yl)-5-fluoro-2-methylphenyl)-4-cyclopropyl-2-fluorobenzamide]
6.91 | C#CC(=O)N1CC(Oc2c(N)ncnc2-c2cc(F)cc(NC(=O)c3ccc(C4CC4)cc3F)c2C)C1 [Example 3, N-(3-(6-Amino-5-((1-propioloylazetidin-3-yl)oxy)pyrimidin-4-yl)-5-fluoro-2-methylphenyl)-4-cyclopropyl-2-fluorobenzamide]
6.42 | CC#CC(=O)N1CC(Oc2c(N)ncnc2-c2cc(F)cc(NC(=O)c3ccc(C4CC4)cc3F)c2C)C1 [Example 4, N-(3-(6-Amino-5-((1-(but-2-ynoyl)azetidin-3-yl)oxy)pyrimidin-4-yl)-5-fluoro-2-methylphenyl)-4-cyclopropyl-2-fluorobenzamide]
6.62 | COC/C=C/C(=O)N(C)CCOc1c(N)ncnc1-c1cc(F)cc(NC(=O)c2ccc(C3CC3)cc2F)c1C [Example 9, (E)-N-(3-(6-Amino-5-(2-(4-methoxy-N-methylbut-2-enamido)ethoxy)pyrimidin-4-yl)-5-fluoro-2-methylphenyl)-4-cyclopropyl-2-fluorobenzamide]
6.49 | Cc1c(NC(=O)c2ccc(C3CC3)cc2F)cc(F)cc1-c1ncnc(N)c1OCCN(C)C(=O)C1CO1 (centres unmarked) [Example 11, N-(2-((4-Amino-6-(3-(4-cyclopropyl-2-fluorobenzamido)-5-fluoro-2-methylphenyl)pyrimidin-5-yl)oxy)ethyl)-N-methyloxirane-2-carboxamide]
6.34 | C=CC(=O)N(C)CCOc1c(N)ncnc1-c1cccc(-n2ccc3cc(C4CC4)cc(F)c3c2=O)c1 [Example 12, N-(2-((4-Amino-6-(3-(6-cyclopropyl-8-fluoro-1-oxoisoquinolin-2(1H)-yl)phenyl)pyrimidin-5-yl)oxy)ethyl)-N-methylacrylamide]
7.54 | C=CC(=O)N(CCF)CCOc1c(N)ncnc1-c1cc(F)cc(NC(=O)c2ccc(C3CC3)cc2F)c1C [Example 15, N-(3-(6-Amino-5-(2-(N-(2-fluoroethyl)acrylamido)ethoxy)pyrimidin-4-yl)-5-fluoro-2-methylphenyl)-4-cyclopropyl-2-fluorobenzamide]
6.25 | C=CC(=O)NC1(COc2c(N)ncnc2-c2cc(F)cc(NC(=O)c3ccc(C4CC4)cc3F)c2C)CC1 [Example 16, N-(3-(5-((1-Acrylamidocyclopropyl)methoxy)-6-aminopyrimidin-4-yl)-5-fluoro-2-methylphenyl)-4-cyclopropyl-2-fluorobenzamide]
6.61 | C=CC(=O)N[C@@H](C)COc1c(N)ncnc1-c1cc(F)cc(NC(=O)c2ccc(C3CC3)cc2F)c1C [Example 17, (S)—N-(3-(5-(2-Acrylamidopropoxy)-6-aminopyrimidin-4-yl)-5-fluoro-2-methylphenyl)-4-cyclopropyl-2-fluorobenzamide]
6.38 | CC#CC(=O)N[C@@H](C)COc1c(N)ncnc1-c1cc(F)cc(NC(=O)c2ccc(C3CC3)cc2F)c1C [Example 18]
6.87 | C=CC(=O)N(C)[C@@H](C)COc1c(N)ncnc1-c1cc(F)cc(NC(=O)c2ccc(C3CC3)cc2F)c1C [Example 19, (S)—N-(3-(6-Amino-5-(2-(N-methylacrylamido)propoxy)pyrimidin-4-yl)-5-fluoro-2-methylphenyl)-4-cyclopropyl-2-fluorobenzamide]
6.48 | CC#CC(=O)N(C)[C@@H](C)COc1c(N)ncnc1-c1cc(F)cc(NC(=O)c2ccc(C3CC3)cc2F)c1C [Example 20]
7.24 | CC#CC(=O)N1CCC[C@H]1COc1c(N)ncnc1-c1cc(F)cc(NC(=O)c2ccc(C3CC3)cc2F)c1C [Example 23]
7.49 | C=CC(=O)N1CCC[C@H]1COc1c(N)ncnc1-c1cc(F)cc(N2CCc3cc(C4CC4)ccc3C2=O)c1CO [Example 24, (S)-2-(3-(5-((1-Acryloylpyrrolidin-2-yl)methoxy)-6-aminopyrimidin-4-yl)-5-fluoro-2-(hydroxymethyl)phenyl)-6-cyclopropyl-3,4-dihydroisoquinolin-1(2H)-one]
7.19 | C=CC(=O)N(C)CCOc1c(N)ncnc1-c1cc(F)cc(N2CCc3cc(C4CC4)ccc3C2=O)c1CO [Example 25, N-(2-((4-Amino-6-(3-(6-cyclopropyl-1-oxo-3,4-dihydroisoquinolin-2(1H)-yl)-5-fluoro-2-(hydroxymethyl)phenyl)pyrimidin-5-yl)oxy)ethyl)-N-methylacrylamide]
7.29 | C=CC(=O)N1C[C@H](OC)C[C@H]1COc1c(N)ncnc1-c1cc(F)cc(NC(=O)c2ccc(C3CC3)cc2F)c1C [Example 26, N-(3-(5-(((2S,4R)-1-Acryloyl-4-methoxypyrrolidin-2-yl)methoxy)-6-aminopyrimidin-4-yl)-5-fluoro-2-methylphenyl)-4-cyclopropyl-2-fluorobenzamide]
7.12 | CC#CC(=O)N1C[C@H](OC)C[C@H]1COc1c(N)ncnc1-c1cc(F)cc(NC(=O)c2ccc(C3CC3)cc2F)c1C [Example 27, N-(3-(6-Amino-5-(((2S,4R)-1-(but-2-ynoyl)-4-methoxypyrrolidin-2-yl)methoxy)pyrimidin-4-yl)-5-fluoro-2-methylphenyl)-4-cyclopropyl-2-fluorobenzamide]
7.48 | C=CC(=O)N1C[C@H](OC)C[C@H]1COc1c(N)ncnc1-c1cc(F)cc(N2CCc3cc(C4CC4)ccc3C2=O)c1CO [Example 28, 2-(3-(5-(((2S,4R)-1-Acryloyl-4-methoxypyrrolidin-2-yl)methoxy)-6-aminopyrimidin-4-yl)-5-fluoro-2-(hydroxymethyl)phenyl)-6-cyclopropyl-3,4-dihydroisoquinolin-1(2H)-one]
6.87 | C=CC(=O)N1C[C@@H](OC)C[C@H]1COc1c(N)ncnc1-c1cc(F)cc(NC(=O)c2ccc(C3CC3)cc2F)c1C [Example 29, N-(3-(5-(((2S,4S)-1-Acryloyl-4-methoxypyrrolidin-2-yl)methoxy)-6-aminopyrimidin-4-yl)-5-fluoro-2-methylphenyl)-4-cyclopropyl-2-fluorobenzamide]
6.65 | CC#CC(=O)N1C[C@@H](OC)C[C@H]1COc1c(N)ncnc1-c1cc(F)cc(NC(=O)c2ccc(C3CC3)cc2F)c1C [Example 30, N-(3-(6-Amino-5-(((2S,4S)-1-(but-2-ynoyl)-4-methoxypyrrolidin-2-yl)methoxy)pyrimidin-4-yl)-5-fluoro-2-methylphenyl)-4-cyclopropyl-2-fluorobenzamide]
7.60 | C=CC(=O)N1C[C@H](F)C[C@H]1COc1c(N)ncnc1-c1cc(F)cc(NC(=O)c2ccc(C3CC3)cc2F)c1C [Example 31, N-(3-(5-(((2S,4R)-1-Acryloyl-4-fluoropyrrolidin-2-yl)methoxy)-6-aminopyrimidin-4-yl)-5-fluoro-2-methylphenyl)-4-cyclopropyl-2-fluorobenzamide]
7.26 | CC#CC(=O)N1C[C@H](F)C[C@H]1COc1c(N)ncnc1-c1cc(F)cc(NC(=O)c2ccc(C3CC3)cc2F)c1C [Example 32, N-(3-(6-Amino-5-(((2S,4R)-1-(but-2-ynoyl)-4-fluoropyrrolidin-2-yl)methoxy)pyrimidin-4-yl)-5-fluoro-2-methylphenyl)-4-cyclopropyl-2-fluorobenzamide]
6.68 | C#CC(=O)N1CC[C@H]1COc1c(N)ncnc1-c1cc(F)cc(NC(=O)c2ccc(C3CC3)cc2F)c1C [Example 34]
